Several values for one entry are separate records, joined by “and”; a condition that tells them apart may be missing. Equal values may be shown once. Entries after “also recorded” stand apart in the source; their conditions may differ. Read-outs that look alike come from different tables or passages of the source.
Assays:
[1] = cited from earlier work
[2] = Pharmacokinetics of methotrexate in minipig plasma after subcutaneous injection with autoinjector or needle/syringe
[3] = cited from earlier work; for average mean serum concentration: pediatric patients with juvenile rheumatoid arthritis
[4] = 15 mg, 10 rheumatoid arthritis patients, cited from earlier work
[5] = system: rheumatoid arthritis patients; details: cited from earlier work
[6] = system: patients with active rheumatoid arthritis; details: cited from earlier work; for median Disease Activity Score (DAS28) / number of swollen joints / number of tender joints / patients with an ACR20 response: 24 weeks; for patients achieving ACR20: starting dose 15 mg per week; for median Health Assessment Questionnaire (HAQ) score / patients achieving an ACR70 response: week 24; for time to achieve an ACR20 response: same subgroup (n=98); for ACR20 responders: subgroup >1 year between diagnosis and study entry with prior antirheumatic compounds or steroids (n=98)
[7] = system: patients with rheumatoid arthritis; details: cited from earlier work
[8] = cited from earlier work; remark: listed apart in the source
[9] = oral, 5 mg/m^2 per week increased to 10 mg/m^2 per week, 46 patients; cited from earlier work
[10] = Female, Auto injector, SC, Dose Level 12.5, individual animals
[11] = Female, Syringe, SC, Dose Level 12.5, individual animals
[12] = Male, Auto injector, SC, Dose Level 12.5, individual animals
[13] = Male, Syringe, SC, Dose Level 12.5, individual animals

For `CN(Cc1cnc2nc(N)nc(N)c2n1)c1ccc(C(=O)N[C@@H](CCC(=O)O)C(=O)O)cc1` [Methotrexate, L-(+)—N-[p-[[(2,4-Diamino-6-pteridinyl)methyl]methylamino]-benzoyl]glutamic acid], the “average DAS28” value ([1]; after switch from oral to intramuscular administration at 15 mg per week) is given as 5.2, the “average DAS28” value ([1]; before switch from oral to intramuscular administration at 15 mg per week) is given as 5.6 and the “disease improvement compared to placebo” value ([1]; intramuscular dosage escalated 15 to 45 mg per week, 54 patients who did not achieve DAS28<3.2) is given as “no difference in disease improvement”. For the same compound, the “Methotrexate in samples collected prior to dosing” value ([2]; Female, autoinjector, Day 8, attributed to carryover of the instrument, LLOQ=0.2 ng/mL) was 3.19 ng/mL, the “AUC(0-mx)” value [2, 10] was 2501 ng·mL·h and 3172 ng·mL·h and the “AUC(0-t)” value [2, 10] was 2498 ng·mL·h and 3169 ng·mL·h. The T½ [2, 10] was 3.91 h and 3.95 h, the “AUC(0-t)” value ([2]; Female, Autoinjector, Day 8, individual animals) was 3169 ng·h/mL and the “AUC(0-t)” value ([2]; Female, Needle/Syringe, Day 1, individual animals) was 2669 ng·h/mL and 1831 ng·h/mL. The “AUC(0-mx)” value [2, 11] was 2675 ng·mL·h and 1832 ng·mL·h, the “AUC(0-t)” value [2, 11] was 2669 ng·mL·h and 1831 ng·mL·h and the Tmax [2, 11] was 0.50 h. For the same compound, the T½ [2, 11] was 4.90 h and 2.53 h, the “AUC(0-mx)” value [2, 12] was 1903 ng·mL·h and 1407 ng·mL·h and the “AUC(0-t)” value [2, 12] was 1901 ng·mL·h and 1405 ng·mL·h. The T½ [2, 12] was 2.00 h and 1.81 h, the “AUC(0-t)” value ([2]; Male, Autoinjector, Day 1, individual animals) was 1405 ng·h/mL and 1162 ng·h/mL and the “AUC(0-t)” value ([2]; Male, Needle/Syringe, Day 8, individual animals) was 2016 ng·h/mL and 1324 ng·h/mL. For the same compound, the “AUC(0-t)” value [2, 13] was 2464 ng·mL·h and 2016 ng·mL·h, the Tmax [2, 13] was 0.50 h and the “difference in exposure / PK parameters between males and females” value ([2]; SC 12.5 mg, both devices) was “no marked difference; also recorded: no marked sex-related differences”. The “exposure with autoinjector compared with needle/syringe” value ([2]; SC 12.5 mg, male and female minipigs) was “very similar; also recorded: comparable”, the “time at which maximal plasma concentrations were generally observed” value ([2]; both devices, SC 12.5 mg, first collection time point) was 0.25 h and the half-life ([2]; both, Gottingen, minipig, plasma, subcutaneous, 12.5 mg, terminal elimination half-life, range over animals and both devices, where it could be estimated) was 1.81 to 4.9 h. The AUC(0-t) ([2]; female, Gottingen, minipig, plasma, sc, 12.5 mg, AUC(0-t), Female, Autoinjector, Day 8, individual animals) was 2500 ng·h/mL, the AUC(0-t) ([2]; female, Gottingen, minipig, plasma, sc, 12.5 mg, AUC(0-t), Female, Needle/Syringe, Day 1, individual animals) was 2380 ng·h/mL and the Tmax ([2]; female, Gottingen, minipig, plasma, sc, […], Tmax, Auto injector, Dose Level 12.5, Median value) was 0.25 h. It also gave a Tmax ([2]; female, Gottingen, minipig, plasma, sc, […], Tmax, Auto injector, Dose Level 12.5, individual animals) of 0.25 h, a Tmax ([2]; female, Gottingen, minipig, plasma, sc, […], Tmax, Syringe, Dose Level 12.5, Median value) of 0.25 h and a Tmax ([2]; female, Gottingen, minipig, plasma, sc, […], Tmax, Syringe, Dose Level 12.5, individual animals) of 0.25 h. The half-life ([2]; female, Gottingen, minipig, plasma, sc, […], T½, Auto injector, Dose Level 12.5, Mean) was 3.71 h, the half-life ([2]; female, Gottingen, minipig, plasma, sc, […], T½, Auto injector, Dose Level 12.5, individual animals) was 3.26 h and the half-life ([2]; female, Gottingen, minipig, plasma, sc, […], T½, Syringe, Dose Level 12.5, Mean) was 3.39 h. For the same compound, the half-life ([2]; female, Gottingen, minipig, plasma, sc, […], T½, Syringe, Dose Level 12.5, individual animals) was 2.74 h, the AUC(0-t) ([2]; male, Gottingen, minipig, plasma, sc, 12.5 mg, AUC(0-t), Male, Autoinjector, Day 1, individual animals) was 1900 ng·h/mL and the AUC(0-t) ([2]; male, Gottingen, minipig, plasma, sc, 12.5 mg, AUC(0-t), Male, Needle/Syringe, Day 8, individual animals) was 2460 ng·h/mL. It also gave a concentration at 24 h ([2]; male, Gottingen, minipig, plasma, sc, […], Concentration of Methotrexate in plasma, Males, Autoinjector, 24 h, individual animals, BQL = below quantitation limit 0.200 ng/mL) of 0.696 ng/mL, a Tmax ([2]; male, Gottingen, minipig, plasma, sc, […], Tmax, Auto injector, Dose Level 12.5, Median value) of 0.25 h and a Tmax ([2]; male, Gottingen, minipig, plasma, sc, […], Tmax, Auto injector, Dose Level 12.5, individual animals) of 0.25 h. For the same compound, the Tmax ([2]; male, Gottingen, minipig, plasma, sc, […], Tmax, Syringe, Dose Level 12.5, Median value) was 0.25 h, the Tmax ([2]; male, Gottingen, minipig, plasma, sc, […], Tmax, Syringe, Dose Level 12.5, individual animals) was 0.25 h and the half-life ([2]; male, Gottingen, minipig, plasma, sc, […], T½, Auto injector, Dose Level 12.5, Mean) was 1.92 h. The half-life ([2]; male, Gottingen, minipig, plasma, sc, […], T½, Auto injector, Dose Level 12.5, individual animals) was 1.95 h, the half-life ([2]; male, Gottingen, minipig, plasma, sc, […], T½, Syringe, Dose Level 12.5, individual animals) was 1.91 h and the “initial average distribution volume” value ([3]; after intravenous administration) was “about 0.18 L/kg”. For the same compound, the “absorption from parenteral routes of injection” value ([3]; human, in vivo) was “completely absorbed”, the “average mean serum concentration” value ([3]; at about 1 hour) was “about 0.59 μM” and the “average mean serum concentration” value ([3]; at about 3 hours) was “about 0.29 μM”. The oral bioavailability ([4]; fasting) was 67%, the oral bioavailability ([4]; fed) was 63% and the “patients judged to have moderate or marked improvement” value ([5]; 10 mg to 15 mg intramuscular once a week, 78 rheumatoid arthritis patients) was “Eighty-two”. For the same compound, the “patients who deteriorated after switch to oral and improved after switching back to intramuscular” value ([5]; of the 48 patients who switched to oral) was 10 patients, the “patients classified as ACR20 non-responders” value ([6]; 16 weeks, of the total tested (52 patients)) was 14% and the “median Disease Activity Score (DAS28)” value ([6]; oral) was 3.7. The “number of swollen joints” value ([6]; oral) was 3, the “number of tender joints” value ([6]; oral) was 6 and the “patients with an ACR20 response” value ([6]; oral) was 70%. For the same compound, the “patients achieving ACR20” value ([6]; oral, 16 weeks) was 77%, the “median Health Assessment Questionnaire (HAQ) score” value ([6]; oral) was 0.5 and the “patients achieving an ACR70 response” value ([6]; oral) was 33%. For the same compound, the “time to achieve an ACR20 response” value ([6]; oral) was 6 weeks, the ACR20 responders ([6]; oral) was 63% and the “rate of adverse events, subcutaneous versus oral” value ([6]; same dose) was “not accompanied by a significantly higher rate of adverse events”. The “further non-responders with positive ACR20 response after dose increase” value ([6]; subcutaneous dosage increased from 15 mg to 20 mg) was 23%, the “median Disease Activity Score (DAS28)” value ([6]; subcutaneous) was 3.3 and the “number of swollen joints” value ([6]; subcutaneous) was 2. The “number of tender joints” value ([6]; subcutaneous) was 3.5, the “patients with an ACR20 response” value ([6]; subcutaneous) was 78% and the “patients achieving ACR20” value ([6]; subcutaneous, 16 weeks) was 85%. The “median Health Assessment Questionnaire (HAQ) score” value ([6]; subcutaneous) was 0.4, the “patients achieving an ACR70 response” value ([6]; subcutaneous) was 41% and the “time to achieve an ACR20 response” value ([6]; subcutaneous) was 4 weeks. For the same compound, the ACR20 responders ([6]; subcutaneous) was 89%, the “non-responders with positive ACR20 response after switch” value ([6]; switched from 15 mg oral to 15 mg subcutaneous) was 30% and the patients reporting nausea ([7]; after switching to oral) was 48%. The patients reporting nausea ([7]; switched back to intramuscular) was 40%, the “peak serum concentrations and bioavailability, intramuscular versus subcutaneous” value ([8]; 12.5 mg to 25 mg per week) was “similar” and the “Tmax after subcutaneous versus intramuscular administration” value ([8]; in 4 out of 5 patients tested) was “faster”. The “effect of higher doses” value [9] was “dose-related efficacy response together with a trend toward increased toxicity”.

Source: US12357642B2, “Hazardous agent injection system” (Antares Pharma, Inc., priority 2009, dated 2025)
